Laboratory results from US20130011376A1, “Methods for Enhancing Natural Killer Cell Proliferation and Activity” (GAMIDA CELL LTD., priority 2009, published 2013).

Experiments:
Format in all cases: cell-based, human
[1] = system: CD3+ T cells and CD3+CD56+ NKT cells; assay: T and NKT cell fractions in peripheral blood NK cell cultures (FACS); details: increasing nicotinamide concentration (2.5 to 7.5 mM), three weeks
Procedure: Purified CD56+ or CD56+CD3− cells from total nuclear or mononuclear cells or from the fraction depleted from CD34+ or CD133+ cells were cultured in culture bags, T-Flasks or 24 well plates at a concentration of 1-100×10^4 cells/ml in MEMα/10% FCS or CellGro SCGM (Cell Genix)/5% Human Serum/LiforCell® FBS Replacement (Lifeblood Products) containing the following human recombinant cytokines:, interleukin-2 (IL-2) (5-50 ng/ml), interleukin-15 (IL-15), FLT-3 or SCF or FLT3 and SCF or IL-2 and IL-15 or IL-2 only (Perpo Tech, Inc., Rocky Hill, N.J., USA), with or without nicotinamide, and incubated at 37° C. in a humidified atmosphere of 5% CO2 in air. The cultures were topped up once or twice a week with the same volume of fresh medium containing growth factors with or without nicotinamide. […]
The cells were washed with a PBS solution containing 1% BSA, and stained (at 4° C. for 30 min) with fluorescein isothiocyanate (FITC)- or phycoerythrin (PE)-conjugated antibodies or allophycocyanin (APC). The cells were then washed in the above buffer and analyzed using a FACScalibur® flow cytometer (Becton Dickinson, San Jose, Calif., USA). […] Emission of 10^4 cells was measured using logarithmic amplification, and analyzed using the CellQuest software (Becton Dickinson). Cells stained with FITC, PE and APC-conjugated isotype control antibodies were used to determine background fluorescence. […]

[2] = system: cord-blood derived NK cells; assay: Expression of CXCR4, CD49e and CD62L receptors on cultured cord blood NK cells (FACS); details: 2.5 or 5 mM nicotinamide, three weeks, vs cytokines only
Procedure: (§1) 2. Purified CD56+ or CD56+CD3− cells from total nuclear or mononuclear cells or from the fraction depleted from CD34+ or CD133+ cells were cultured in culture bags, T-Flasks or 24 well plates at a concentration of 1-100×10^4 cells/ml in MEMα/10% FCS or CellGro SCGM (Cell Genix)/5% Human Serum/LiforCell® FBS Replacement (Lifeblood Products) containing the following human recombinant cytokines:, interleukin-2 (IL-2) (5-50 ng/ml), interleukin-15 (IL-15), FLT-3 or SCF or FLT3 and SCF or IL-2 and IL-15 or IL-2 only (Perpo Tech, Inc., Rocky Hill, N.J., USA), with or without nicotinamide, and incubated at 37° C. in a humidified atmosphere of 5% CO2 in air. The cultures were topped up once or twice a week with the same volume of fresh medium containing growth factors with or without nicotinamide. Eventually cultures can be supplemented once or several times a week with IL-2 and or IL-2 and IL-15. To estimate the number of cells in culture, cell samples were stained with trypan blue for counting. At various time points, samples were taken for FACS analysis to assay the relative fractions of NK cells, CD56+CD3−, CD56+CD3+, CD34+CD56+, CD56+CD16+ and/or CD56+ NKG2A cells.
(§2) The cells were washed with a PBS solution containing 1% BSA, and stained (at 4° C. for 30 min) with fluorescein isothiocyanate (FITC)- or phycoerythrin (PE)-conjugated antibodies or allophycocyanin (APC). The cells were then washed in the above buffer and analyzed using a FACScalibur® flow cytometer (Becton Dickinson, San Jose, Calif., USA). The cells were passed at a rate of up to 1000 cells/second, using a 488 nm or 661 nm argon laser beam as the light source for excitation. Emission of 10^4 cells was measured using logarithmic amplification, and analyzed using the CellQuest software (Becton Dickinson). Cells stained with FITC, PE and APC-conjugated isotype control antibodies were used to determine background fluorescence.

[3] = system: cord blood NK cells (CD56+); assay: Ex-vivo proliferation of purified cord blood CD56+ NK cells cultured with cytokines and nicotinamide; details: for proliferation of NK cells relative to growth factors (cytokines) alone: 14 days
Procedure: Cells were obtained from umbilical cord blood after normal full-term delivery (informed consent was given). Samples were collected and frozen within 24 hours postpartum. Briefly, cord blood was collected by gravity from delivered placentas, the leukocyte-rich fraction was separated by density gradient centrifugation, cells mixed with DMSO (10%) and then frozen at −80° C. Prior to use, the cells were thawed in Dextran buffer (Sigma, St. Louis, Mo., USA) containing 2.5% human serum albumin (HSA) (Bayer Corp. Elkhart, Ind., USA), and the cryoprotectant removed.
Cord blood (CB), bone marrow (BM) or peripheral blood (PB) cells were layered on a Ficoll-Hypaque gradient (1.077 g/mL; Sigma), and centrifuged at 800×g for 30 minutes for separation of the mononuclear cells. The cells in the interface layer were collected and washed three times in phosphate-buffered saline (PBS) (Biological Industries, Israel) containing 0.5% HSA. To purify the CD56+ cells, the mononuclear cell fraction was subjected to two cycles of immunomagnetic bead separation, using a “MiniMACS or CliniMACS CD56 progenitor cell isolation kit” (Miltenyi Biotec Bergisch, Gladbach, Germany), according to the manufacturer's recommendations. Briefly, CD56+ cells are reacted with CD56+ specific magnetic immunobeads, separated and with a magnetic separator, and purified from unbound cells by washing. The purity of the CD56+ population thus obtained is approximately 92%, as evaluated by flow cytometry.
as §1
In order to calculate the number of NK cells on day 0, the total number of cells seeded on day 0 was multiplied by the percent of CD56+/CD3− cells measured by the FACS on day 0.
To determine total number of cells on day 7, 14 and 21, the cell count/ml was multiplied by the volume of the culture medium. In order to determine the number of NK cells in culture, the total number of cells in culture was multiplied by the percent of CD56+/CD3− cells measured with the FACS on days 7, 14 or 21. To measure fold expansion, total number of NK cells on days 7, 14 and 21 was divided by total number of NK cells seeded in culture on day-0.

[4] = system: purified cord-blood derived CD56+ cells; assay: Inhibitory CD56+NKG2A cell fraction in cultured cord blood CD56+ cells (FACS); details: 1, 2.5 and 5 mM nicotinamide, 3 weeks culture
Procedure: as §1, with “Eventually cultures can be supplemented once or several times a week with IL-2 and or IL-2 and IL-15. To estimate the number of cells in culture, cell samples were stained with trypan blue for counting. At various time points, samples were taken for FACS analysis to assay the relative fractions of NK cells, CD56+CD3−, CD56+CD3+, CD34+CD56+, CD56+CD16+ and/or CD56+ NKG2A cells.” left out
as §2, with “The cells were passed at a rate of up to 1000 cells/second, using a 488 nm or 661 nm argon laser beam as the light source for excitation.” left out, “fluorescence. […]” for “fluorescence.”

[5] = system: cord-blood derived CD56+ cells; assay: Transwell chemotaxis (migration) assay
Procedure: Chemotaxis (“migration”) assay: Migration response (chemotaxis) of human NK cells was assayed by Transwell migration assay (Costar, Cambridge, Mass.; 6.5-mm diameter, 5-μm pore size). Briefly, 100 μL chemotaxis buffer (RPMI 1640, 1% FCS) containing 2×10^5 NK cells was added to the upper chamber, and 0.5 mL chemotaxis buffer with or without 250 ng/ml stromal-derived factor CXCL12 (“SDF-1”) (R&D Systems) was added to the bottom chamber. Cells migrating within 4 hours to the bottom chamber of the “transwell” were counted for 60 seconds using FACScalibur (Becton Dickinson Immunocytometry Systems).

NC(=O)c1cccnc1 [nicotinamide]
fraction of CD3+ T cells [1]: reduction
fraction of CD3+CD56+ NKT cells [1]: reduction
expression of CD49e (adhesion receptor) [2]: elevated expression
expression of CD62L (trafficking receptor) [2]: strongly enhanced expression
expression of CXCR4 (migratory receptor) [2]: strongly enhanced expression
NK cell proliferation relative to growth factors (cytokines) alone ([3]; 0.5 mM to 5 mM nicotinamide, three weeks culture): up to 2.5 times
proliferation of NK cells relative to growth factors (cytokines) alone ([3]; 2.5 mM nicotinamide, IL-2 and IL-15): greater than 4 times
proliferation of NK cells relative to growth factors (cytokines) alone ([3]; 5 mM nicotinamide, compared with 2.5 mM): even greater
expansion of cord blood CD56+ NK cultures vs cytokine-only controls ([3]; 1 to 7.5 mM nicotinamide, up to 3 weeks, Flt-3, IL-2 and IL-15): dose-dependent increase in the expansion
proliferation of NK cells ([3]; all concentrations tested, as early as 14 days of culture): significantly enhanced proliferation
prevalence of the inhibitory CD56+NKG2A cell fraction among NK cells [4]: significant and dose dependent reduction
migration in response to SDF stimulus ([5]; cells cultured with 2.5 or 5 mM nicotinamide, 250 ng/ml SDF): greatly enhanced
motility in the absence of SDF stimulus ([5]; nicotinamide-cultured CD56+ cells, no SDF): enhanced motility
